These results are taken from publication PMC5369982, “Near infrared fluorescent imaging of choline kinase alpha expression and inhibition in breast tumors” (Oncotarget, 2017).

One data set relates to MCF7-CK+ cells. Nature of the data set: Cell viability, Trypan blue exclusion. The format is cell-based, human. Particulars: 17 h, ± SEM, 3 experiments. Here is the method: (§1) MCF7 cells were plated for Trypan exclusion assays at 1.0 × 10^6 cells/well in 6-well plates and treated with MN58b or JAS239, synthesized in house. At 17 h, cells were collected by trypsinization, stained with Trypan Blue, and counted using a Neubauer hemocytometer. For 3-(4,5-Dimethylthiazol-2-yl)-2,5-diphenyltetrazolium bromide (MTT) assays, cells in 96-well plates (7.5 × 10^4 cells/well) were treated with JAS239 or MN58b overnight, and stained with 20 μL of 5 mg/mL MTT (Sigma-Aldrich) for 2 h, lysed with DMSO and scanned for absorbance using a SpectraMax M5 plate reader (Molecular Devices) at 550 nm, subtracting background absorbance at 690 nm from each sample.
(§2) Supplementary Figure 2: Breast cancer cell viability in response to ChoK inhibitors. (A–D) Cell viability measurements via […]
(§3) (A) or JAS239 (B). MTT assays were performed on MDA-MB-231 and 4175-Luc+ (C, D) cells exposed to MN58b (C) or JAS239 (D).
(§4) Values are reported relative to untreated control groups and represent ± SEM for 3 separate experiments. At higher JAS239 concentrations, the MTT assay was used as JAS239 interfered with Trypan blue counting. There was no overlap in absorbance readings between the MTT formazan product and JAS239.
(§5) (1 picture or pasted object on this page, not shown here)

For a further data set, the system named is MCF7-EV cells. Nature of the data set: Cell viability, Trypan blue exclusion. The format is cell-based, human. Particulars: 17 h, ± SEM, 3 experiments. As for the experimental part: as §1, §2, §3, §4, §5
A further data set concerns 4175-Luc+ cells. The data set is described as follows: Cell viability, MTT assay. The settings on record: 17 h, ± SEM, 3 experiments. In kind it is cell-based, human. As for the experimental part:
as §1, §2, §3, §4, §5

A further data set concerns MDA-MB-231 cells. The data set is described as follows: Cell viability, MTT assay. The format is cell-based, human. The settings on record: 17 h, ± SEM, 3 experiments. Here is the method:
as §1, §2, §3, §4, §5
On the technique in general: Tetrazolium assays rely on reduction of a dye to a coloured formazan, in cell work by metabolically active cells.

Data set [1] concerns MCF7-EV and MCF7-CK+ tumors. Nature of the data set: NIRF optical imaging of JAS239 in mice bearing MCF7-EV and MCF7-CK+ tumors. The format is in vivo, mouse. As for the experimental part: All animal studies were approved by the Institutional Animal Care and Use Committee of the University of Pennsylvania. Six week old female athymic nude Foxn1^nu/nu mice (National Cancer Institute) were housed in a temperature-controlled environment with 12 h light/dark cycle. Anesthesia was induced using 2% isoflurane in oxygen for all experiments. For MCF7 tumors, mice were supplemented with 60-day release 0.36 mg 17β-estradiol tablets (Innovative Research of America) using a trochar in the nape of the neck. After 1 week, 4 × 10^6 cells in Matrigel (BD Biosciences) were inoculated into the left (CK+) and contralateral (EV) mammary fat pads. Subcutaneous xenografts, including those analyzed in MRI/MRS studies, were grown on the shoulder to allow for cloaking of the kidneys during optical imaging studies. Tumor growth was determined via caliper measurement of three orthogonal dimensions and volume calculated as length * width * height * π/6.
Bioluminescence and NIRF (Ex. 745 nm; Em. 800 nm) images were acquired in an IVIS Spectrum (PerkinElmer). NIRF is measured in Average Radiant Efficiency, photons per second (p/sec) corrected for the area of the region of interest (ROI) and the efficiency of the lamp (μ Watt *cm^−2 / steradian^-1). […] Bioluminescent Radiance (p/sec/cm^2/sr) was monitored by time-course imaging until the luminescence intensity plateaued. […]

For the next data set, the system named is MDA-MB-231 tumors. Nature of the data set: Pharmacodynamic indicators of ChoKα inhibition (MRI/MRS). The format is in vivo, mouse. The settings on record: 5 days i.p., MN58b 2 mg/kg, JAS239 4 mg/kg; for Change in tumor tCho compared to control (MRS) / Tumor volume between pre- and post-treatment scans (MRI): day 7; for PUFA resonances (measure of tumor apoptosis): trend not significant. Here is the method: Mice bearing subcutaneous 4175-Luc+ or MB-MDA-231 tumors (∼300 μL) underwent pre-treatment MRS scans in a 9.4 T horizontal bore magnet equipped with 40 G/cm gradients interfaced to an Agilent Direct-Drive console (Agilent) operating vnmrj 2.3.C software. Multi-slice gradient and spin echo images were used for tumor localization. T2-weighted spin echo anatomical images were acquired using a spin echo multi-slice (SEMS) pulse sequence (TR = 1000 ms, TE = 10 ms, number of slices = 20, field of view = 20 × 20 mm^2, slice thickness = 1 mm, NT = 1, matrix size = 256 × 128) and used for voxel selection. A single voxel ^1H PRESS spectrum was acquired in a 3×3x3 mm^3 voxel (TR = 3000 ms, TE1 = 12.68 ms and TE2 = 10.01 ms, number of averages = 128, complex points = 4096, spectral width = 4000 Hz and acquisition time of 6 min 24 sec). Water suppression was achieved using the VAPOR sequence. An unsuppressed water spectrum was acquired (8 averages) as a chemical shift and concentration reference. One week following initiation of treatment, ^1H MR spectra were acquired again. Spectra were processed using Mnova Lite 5.2.5 software (Mestrelab Research). Free induction decays were processed by 10 Hz apodization followed by Fourier transformation. Spectra were phased and chemical shift and baseline correction performed prior to fitting of the water (4.7 ppm), tCho (3.2 ppm), PUFA (2.8 ppm), and lipid (1.3 ppm) resonances. The metabolite/water ratio was determined and the percent change was determined as [post-treatment ratio – pre-treatment ratio] *100%/pre-treatment ratio.
A cohort of 15 mice was inoculated with MDA-MB-231 cells. When a volume of 300 μL was reached, tumors were scanned using MRS. Tumor volumes were measured using T2-weighted images. The animals were separated into treatment groups, and for 5 consecutive days each group was injected i.p. with 100 μL of DMSO/saline vehicle (n = 5), 2 mg/kg MN58b (n = 4), or 4 mg/kg JAS239 (n = 3). Initial cohort sizes were 5 per condition, but some animals had to be removed from the study because the treatment was so effective that we were unable to place voxels within post-treatment tumors that were too small. Follow-up MRI/MRS scanning was performed on day 7 to assess tumor growth inhibition and changes in metabolite levels. After imaging, blood was collected into heparin-coated tubes by cardiac puncture. Resected tumors were embedded in Optimum Cryo-Temperature (Sakura Finetek), flash-frozen in liquid nitrogen, and stored at –80 °C. Blood samples were submitted to the Ryan Veterinary Clinic Diagnostic labs for toxicology.

For data set [2], the system named is MDA-MB-231 tumor xenografts. Set-up: method as in PMID 16397258. The settings on record: 4 mg/kg; cited from earlier work.

The term EC50 denotes the concentration that produces a half-maximal response. The low end stands for an effect from little substance, the high end for a need for much substance. Take `CC1(C)C(=C/C=C/C=C/C=C/C2=[N+](CCO)c3ccccc3C2(C)C)N(CCO)c2ccccc21` [JAS239]: the EC50 is 5.33 ± 0.84 µM with MCF7-CK+ cells, 4.04 ± 0.55 µM with MCF7-EV cells, 35 ± 21.6 µM in the data set on 4175-Luc+ cells and 27.2 ± 7.9 µM with MDA-MB-231 cells. Besides, the “Tumor/normal tissue fluorescence ratio” value in data set [1] is listed as 2.8 ± 0.2. In addition, the “Change in tumor tCho compared to control (MRS)” value in the data set on MDA-MB-231 tumors was “reduce tCho to noise levels”. Further, the “Tumor volume between pre- and post-treatment scans (MRI)” value in the data set with MDA-MB-231 tumors is recorded as “static”. For the same compound, in the data set with MDA-MB-231 tumors, the “PUFA resonances (measure of tumor apoptosis)” value is listed as “increased”.
For MN58b [reference compound], the EC50 with MCF7-CK+ cells came out at 6.86 ± 0.43 µM; with MCF7-EV cells it was 3.29 ± 0.48 µM; in the data set with 4175-Luc+ cells it was 20.7 ± 6.4 µM; in the data set on MDA-MB-231 cells it was 14.3 ± 4.6 µM. In addition, the “Change in tumor tCho compared to control (MRS)” value in the data set with MDA-MB-231 tumors was “Significant reductions in tCho”. Also, the “Tumor volume between pre- and post-treatment scans (MRI)” value with MDA-MB-231 tumors is recorded as “static”. Further, the “PUFA resonances (measure of tumor apoptosis)” value in the data set with MDA-MB-231 tumors is given as “increased”. In data set [2], the “PC levels in tumor xenografts” value is “lower PC levels”.
